Consider 5 compounds from BindingDB's records for patent US20250059188 (Anaxis Pharma, 2025).

Some results are limits rather than exact numbers.

Common to all, as to assay: In Vitro Assay
Experiment [1] deals with Receptor-interacting serine/threonine-protein kinase 3 (Homo sapiens, UniProt Q9Y572). As for the experimental part: (§1) For most assays, kinase-tagged T7 phage strains were grown in parallel in 24-well blocks in an E. coli host derived from the BL21 strain. E. coli were grown to log-phase and infected with T7 phage from a frozen stock (multiplicity of infection=0.4) and incubated with shaking at 32° C. until lysis (90-150 minutes). The lysates were centrifuged (6,000×g) and filtered (0.2 μm) to remove cell debris. The remaining kinases were produced in HEK-293 cells and subsequently tagged with DNA for qPCR detection. […] The liganded beads were blocked with excess biotin and washed with blocking buffer (SeaBlock (Pierce), 1% BSA, 0.05% Tween 20, 1 mM DTT) to remove unbound ligand and to reduce non-specific phage binding. […] All reactions were performed in polypropylene 384-well plates in a final volume of 20 μL. […] The kinase concentration in the eluates was measured by qPCR.
Receptor-interacting serine/threonine-protein kinase 3, sequence (Q9Y572 whole entry): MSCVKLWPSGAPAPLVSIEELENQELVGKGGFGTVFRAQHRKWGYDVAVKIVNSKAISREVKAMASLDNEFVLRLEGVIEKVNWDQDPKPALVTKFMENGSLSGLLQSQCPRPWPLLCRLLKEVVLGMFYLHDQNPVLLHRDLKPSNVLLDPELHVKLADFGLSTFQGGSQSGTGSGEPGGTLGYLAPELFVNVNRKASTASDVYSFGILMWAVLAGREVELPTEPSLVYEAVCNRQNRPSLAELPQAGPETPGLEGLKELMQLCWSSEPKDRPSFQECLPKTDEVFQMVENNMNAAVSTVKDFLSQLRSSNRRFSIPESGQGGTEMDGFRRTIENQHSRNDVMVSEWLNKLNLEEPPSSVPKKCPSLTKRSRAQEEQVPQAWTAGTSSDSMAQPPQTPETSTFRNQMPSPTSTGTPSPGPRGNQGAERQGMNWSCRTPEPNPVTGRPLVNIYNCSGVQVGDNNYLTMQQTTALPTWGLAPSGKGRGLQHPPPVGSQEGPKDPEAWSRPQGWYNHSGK

The target in experiment [2] is T1, Mixed lineage kinase domain-like protein (Homo sapiens, UniProt Q8NB16).
T1 sequence (Q8NB16 whole entry): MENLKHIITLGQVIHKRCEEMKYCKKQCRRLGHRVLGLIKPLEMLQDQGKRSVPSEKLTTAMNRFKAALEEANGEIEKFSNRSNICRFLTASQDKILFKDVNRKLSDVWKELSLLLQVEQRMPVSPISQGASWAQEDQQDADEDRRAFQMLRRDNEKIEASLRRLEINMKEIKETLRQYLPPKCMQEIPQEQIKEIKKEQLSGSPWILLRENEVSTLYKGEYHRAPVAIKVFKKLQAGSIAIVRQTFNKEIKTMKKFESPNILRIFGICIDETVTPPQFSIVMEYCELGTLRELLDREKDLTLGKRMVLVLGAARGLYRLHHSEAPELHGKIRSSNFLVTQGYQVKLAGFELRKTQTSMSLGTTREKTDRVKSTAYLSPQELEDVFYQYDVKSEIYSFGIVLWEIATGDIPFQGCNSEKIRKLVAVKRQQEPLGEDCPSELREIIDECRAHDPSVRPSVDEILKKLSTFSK
As for the experimental part: as §1

Experiment [3] deals with T2, Receptor-interacting serine/threonine-protein kinase 1 (Homo sapiens, UniProt Q13546).
T2 sequence (Q13546 whole entry): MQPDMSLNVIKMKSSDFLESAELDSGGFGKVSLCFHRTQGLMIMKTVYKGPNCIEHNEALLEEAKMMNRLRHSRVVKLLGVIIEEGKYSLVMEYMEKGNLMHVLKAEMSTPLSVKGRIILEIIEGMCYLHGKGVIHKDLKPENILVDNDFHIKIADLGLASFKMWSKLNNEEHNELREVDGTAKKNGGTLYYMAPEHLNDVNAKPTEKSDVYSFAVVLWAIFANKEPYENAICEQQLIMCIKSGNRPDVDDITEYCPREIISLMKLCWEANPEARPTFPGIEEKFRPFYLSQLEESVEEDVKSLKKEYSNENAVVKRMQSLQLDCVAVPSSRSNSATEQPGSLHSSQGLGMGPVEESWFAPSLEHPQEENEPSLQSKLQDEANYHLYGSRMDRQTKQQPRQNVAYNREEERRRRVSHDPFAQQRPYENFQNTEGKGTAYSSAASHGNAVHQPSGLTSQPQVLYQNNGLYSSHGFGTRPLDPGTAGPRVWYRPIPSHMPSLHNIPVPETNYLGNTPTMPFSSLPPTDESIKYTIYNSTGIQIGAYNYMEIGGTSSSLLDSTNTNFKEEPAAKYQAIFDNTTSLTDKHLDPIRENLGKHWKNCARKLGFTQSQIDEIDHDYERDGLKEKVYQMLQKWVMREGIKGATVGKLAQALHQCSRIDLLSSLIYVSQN
As for the experimental part:
as §1

Consider `Cn1nc(-c2ccc(NS(=O)(=O)C(F)F)c(OCc3ccc(F)cc3)c2)c2c(N)ncc(-c3ccncc3)c21` [US20250059188, Compound 14], for which the results for the Kd in experiment [1], in experiment [2] and in experiment [3] were above 10 µM, below 0.001 µM and above 10 µM, respectively.
As for `C[C@H](Oc1cc(C2C=NN3C=CN=C(N)C23)ccc1NS(=O)(=O)C(F)F)c1ccc(F)cc1` (some centres undefined) [US20250059188, Compound 22], the dissociation constant Kd (in general, the constant that tells how readily two partners part at equilibrium) in experiment [1] is above 10 µM; in experiment [2], below 0.001 µM; in experiment [3], above 10 µM.
For the compound `COc1ccc([C@H](C)Oc2cc(-c3nn(C)c4c(-c5cnn(C6CCOCC6)c5)cnc(N)c34)ccc2NS(=O)(=O)C(F)F)cc1` [US20250059188, Compound 129], the figures for the Kd in experiment [1], in experiment [2] and in experiment [3] were above 10 µM, below 0.001 µM and above 10 µM, respectively.
Regarding `C[C@H](Oc1cc(-c2nn(C)c3c(-c4cnn(C5CCN(C)C(C(F)F)C5)c4)cnc(N)c23)ccc1NS(=O)(=O)C(F)F)c1ccc(F)cc1` (some centres undefined) [US20250059188, Compound 158], the dissociation constant Kd in experiment [1] and in experiment [3] was above 10 µM each time.
On to `C[C@H](Oc1cc(-c2nn(C)c3c(-c4cnn(C5CCC(N(C)C)C5)c4)cnc(N)c23)ccc1NS(=O)(=O)C(F)F)c1ccc(F)cc1` (some centres undefined) [US20250059188, Compound 168], for which the equilibrium dissociation constant (Kd) in experiment [1] is above 10 µM; in experiment [2], below 0.001 µM; in experiment [3], above 10 µM.
